Test results published in patent publication US4118561A, “7-(Substituted)-7H-pyrrolo[3,2-f]quinazoline-1,3-diamines” (priority 1977, dated 1978).
Converted amounts (≈) assume the structure as drawn. Read-outs that look alike come from different tables or passages of the source.

Columns and labels:
S. paratyphi 11737 = assay: In vitro antibacterial activity (MIC), S. paratyphi 11737; format: cell-based; details: Salmonella enterica, 18 h
bacterial infections = assay: Synergism with sulfamethoxazole against bacterial infections in mice, oral; format: in vivo
Procedure: The invention also provides compounds which will potentiate the antibacterial effects of sulfa drugs.
(§1) The test agents are weighed, suspended in 0.5% aqueous carboxymethyl cellulose, homogenized (glass tissue grinder) and diluted according to the design of the experiment. Mice (male, 18±1 g., CD-1 strain) are pre-weighed, pooled, infected at random intraperitoneally with a 0.5 ml. standardized suspension (LD95 ±5%) of the bacterial organism in 5% gastric mucin and treated at random with single doses of the test agents either at the time of infection or six hours after infecting. The treated groups consist of ten mice per dosage level. Deaths are recorded daily for 14 days and the PD50 (mice are treated at time of infection) and CD50 (mice are treated six hours after infecting) values are calculated by the method of Reed and Muench [Amer. J. Hyg., 27, 493 (1938)].

Proteus mirabilis 190 = assay: In vivo antibacterial synergism (mouse), Proteus mirabilis 190; design: species or system Proteus mirabilis (infected mice, CD-1); details: mice, p.o.; for ED50: Proteus mirabilis, 190, po, 336 h; for PD50 SM/Cpd. (compound part): 0 hours; for PD50 SM/Cpd. (compound part) / CD50 SM/Cpd. (compound part): 20160 min; for CD50 SM/Cpd. (compound part): 6 hours
Proteus mirabilis 3 = assay: In vivo antibacterial synergism (mouse), Proteus mirabilis 3; design: species or system Proteus mirabilis (infected mice, CD-1); details: mice, p.o.; for PD50 SM/Cpd. (compound part): 0 hours, 20160 min
Procedure: as §1

Proteus vulgaris 347 = assay: In vivo antibacterial synergism (mouse), Proteus vulgaris 347; design: species or system Proteus vulgaris (infected mice, CD-1); details: mice, p.o.; for ED50: Proteus vulgaris, 347, po, 336 h; for PD50 SM/Cpd. (compound part): 0 hours; for PD50 SM/Cpd. (compound part) / CD50 SM/Cpd. (compound part): 20160 min; for CD50 SM/Cpd. (compound part): 6 hours
Procedure: as §1

[1] = system: Plasmodium berghei KBG 173; assay: Antimalarial blood schizonticidal test in mice; format: in vivo, Plasmodium berghei (infected ICR/HA Swiss mice); design: ΔMST (increase in mean survival time): unit: days; details: s.c.
In short: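 Single s.c. doses (peanut oil vehicle, graded levels) given 72 h after i.p. inoculation of young Swiss mice with P. berghei KBG 173 blood (4 × 10^7 parasitized cells). Activity judged by cures (alive at 60 days) or significant mean survival gain over untreated controls, without drug-related deaths.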

[2] = system: lymphocytic leukemia P-388; assay: Activity in mice against lymphocytic leukemia P-388; format: in vivo; details: Mus musculus, P388, ip; mice, I.P., 20 mg/kg; read-out: T/C
E. coli 9637 = assay: In vitro antibacterial activity (MIC), E. coli 9637; details: Escherichia coli, 9637, 18 h
S. aureus Smith = assay: In vitro antibacterial activity (MIC), S. aureus Smith; details: Staphylococcus aureus, 18 h
S. aureus 53-180 = assay: In vitro antibacterial activity (MIC), S. aureus 53-180; details: Staphylococcus aureus, 53180, 18 h
P. vulgaris 6896 = assay: In vitro antibacterial activity (MIC), P. vulgaris 6896; details: Proteus vulgaris, 6896, 18 h
N. catarrhalis 8193 = assay: In vitro antibacterial activity (MIC), N. catarrhalis 8193; details: 18 h
K. pneumoniae 10031 = assay: In vitro antibacterial activity (MIC), K. pneumoniae 10031; details: Klebsiella pneumoniae, 10031, 18 h
[3] = treated 0 hours after infecting, read-out: PD50 (agent alone)
[4] = treated 6 hours after infecting, read-out: CD50 (agent alone)

SMILES: N#Cc1ccc(Cn2ccc3c4c(N)nc(N)nc4ccc32)cc1 [Example 16, 7-[(4-cyanophenyl)methyl]-7H-pyrrolo[3,2-f]-quinazoline-1,3-diamine]
- MIC (S. paratyphi 11737): 0.488 µg/mL (≈ 1.55 µM)
- synergistic effect with sulfamethoxazole (bacterial infections): synergistic effect
- ED50 (Proteus mirabilis 190; [3]): 18.6 mg/kg
- ED50 (Proteus mirabilis 190; [4]): 159 mg/kg
- PD50 SM/Cpd. (compound part) (Proteus mirabilis 190; with SM 0.39 mg. per kg.): > 12.50 mg. per kg.
- PD50 SM/Cpd. (compound part) (Proteus mirabilis 190; with SM 0.78 mg. per kg.): 8.78 mg. per kg.
- PD50 SM/Cpd. (compound part) (Proteus mirabilis 190; with SM 1.56 mg. per kg.): 3.39 mg. per kg.
- PD50 SM/Cpd. (compound part) (Proteus mirabilis 190; with SM 3.11 mg. per kg.): 2.44 mg. per kg.
- CD50 SM/Cpd. (compound part) (Proteus mirabilis 190; with SM 0.39 mg. per kg.): > 6.25 mg. per kg.
- CD50 SM/Cpd. (compound part) (Proteus mirabilis 190; with SM 0.78 mg. per kg.): > 6.25 mg. per kg.
- CD50 SM/Cpd. (compound part) (Proteus mirabilis 190; with SM 1.56 mg. per kg.): 4.0 mg. per kg.
- CD50 SM/Cpd. (compound part) (Proteus mirabilis 190; with SM 3.11 mg. per kg.): 2.33 mg. per kg.
- ED50 (Proteus mirabilis 3; Proteus mirabilis, 3, po, 336 h, treated 0 hours after infecting, read-out: PD50 (agent alone)): 22.7 mg/kg
- PD50 SM/Cpd. (compound part) (Proteus mirabilis 3; with SM 0.78 mg. per kg.): 7.11 mg. per kg.
- PD50 SM/Cpd. (compound part) (Proteus mirabilis 3; with SM 1.56 mg. per kg.): 6.56 mg. per kg.
- PD50 SM/Cpd. (compound part) (Proteus mirabilis 3; with SM 3.13 mg. per kg.): 2.28 mg. per kg.
- PD50 SM/Cpd. (compound part) (Proteus mirabilis 3; with SM 6.25 mg. per kg.): 2.11 mg. per kg.
- ED50 (Proteus vulgaris 347; [3]): > 200 mg/kg
- ED50 (Proteus vulgaris 347; [4]): > 400 mg/kg
- PD50 SM/Cpd. (compound part) (Proteus vulgaris 347; with SM 0.78 mg. per kg.): > 12.5 mg. per kg.
- PD50 SM/Cpd. (compound part) (Proteus vulgaris 347; with SM 1.56 mg. per kg.): > 12.5 mg. per kg.
- PD50 SM/Cpd. (compound part) (Proteus vulgaris 347; with SM 3.13 mg. per kg.): 9.67 mg. per kg.
- PD50 SM/Cpd. (compound part) (Proteus vulgaris 347; with SM 6.25 mg. per kg.): 6.25 mg. per kg.
- CD50 SM/Cpd. (compound part) (Proteus vulgaris 347; with SM 3.11 mg. per kg.): 7.28 mg. per kg.
- CD50 SM/Cpd. (compound part) (Proteus vulgaris 347; with SM 6.25 mg. per kg.): 8.83 mg. per kg.
- CD50 SM/Cpd. (compound part) (Proteus vulgaris 347; with SM 12.5 mg. per kg.): 4.66 mg. per kg.
- CD50 SM/Cpd. (compound part) (Proteus vulgaris 347; with SM 25 mg. per kg.): 5.07 mg. per kg.
- minimal effective dose ([1]; Plasmodium berghei, sc, 1440 h, single dose, 60-day survivors, read-out: Min. Curing Dose): 5 mg/kg
- Cure/Treat at Min. Curing Dose ([1]; at the Min. Curing Dose, 60-day survivors): 1/5
- ΔMST (increase in mean survival time) ([1]; dose 10 mg. per kg.): 8.4
- response vs control in vivo at 20 mg/kg [2]: 138%
- MIC (E. coli 9637): 0.244 µg/mL (≈ 0.776 µM)
- MIC (S. aureus Smith): 0.244 µg/mL (≈ 0.776 µM)
- MIC (S. aureus 53-180): 0.122 µg/mL (≈ 0.388 µM)
- MIC (P. vulgaris 6896): 1.95 µg/mL (≈ 6.2 µM)
- MIC (N. catarrhalis 8193): 0.0076 µg/mL (≈ 0.0242 µM)
- MIC (K. pneumoniae 10031): 0.061 µg/mL (≈ 0.194 µM)
